Measured values as given in US12521415B2, “Accelerating repair of mucosal injury using gold(III) compounds” (University of Kentucky Research Foundation, priority 2020, dated 2026).
Entries after “also recorded” stand apart in the source; their conditions may differ.

Columns and labels:
human colonoids = assay: AmplexRed H2O2 production in human colonoid monolayer cultures; type: cell-based
Procedure: FIG. 11A includes representative images showing AuPhos-induced (200 nM) mtROS (superoxide) production using MitoSOX Red assay.
Murine IEC will be isolated as above. Human biopsies will be incubated for 15 min at RT in CMF-HBSS/10 mM DTT with following incubation at 4° C. CMF-HBSS/8 mM EDTA for 75 min. Epithelial cells will be dislodged by vigorous shaking. Large pieces of tissue will be discarded, epithelial cells harvested by centrifugation at 40 g/5 min and imbedded in Matrigel. Both human and mouse colonoids will be grown in WRN medium (conditional medium from L-WRN cells (ATCC CRL-3276)) supplemented with 20% FBS, 500 nM A 83-01, 10 μM SB 202190, 10 μM Y27632, 2.5 μM CHIR99021, 100 μg/ml piromicin and 2.5 μg/ml amphotericin. Colonoids will be passaged every 5-7 days. NCM460 cells derived from normal human colon mucosa were purchased from INCELL Corporation, and will be cultured in M3:10 medium with 30% conditioned medium from previous culture under standard incubation conditions.
Given the in vivo data in FIG. 10, it was determined if AuPhos increases ROS levels within mitochondria (mtROS). To examine this possibility, colonic NCM460 cells were cultured, treated with a positive control (Rotenone), AuPhos (200 nM) or AuPhos with PEG-SOD (negative control) and analyzed with MitoSOX Red (an indicator of mitochondrial superoxide). […]

DSS colitis mice = assay: DSS-induced colitis in mice treated with AuPhos; type: in vivo, mouse; details: for colonic ulceration (tissue histology): left colon
Procedure: FIG. 9A includes results for changes with 2% DSS given for 7 days followed by water. AuPhos was started (25 mg/kg q 3D) on DAY1. Body Wt changes shown as means of each group (n=6) with SEM for 9 and 13 day trials. FIG. 9B includes results for changes with 2% DSS given for 7 days followed by water. AuPhos was started (25 mg/kg q 3D) on DAY1. Body Wt changes shown as means of each group (n=6) with SEM for 9 and 13 day trials as shown, with corresponding DAI. FIG. 9C includes results for changes with 2% DSS given for 7 days followed by water. AuPhos was started (25 mg/kg q 3D) on DAY1. Histological score in DSS-colitis mice 7 and 13 days after DSS initation. Statistical significance was determined using 2-way ANOVA with Sidak's multiple comparison test (A,B) or unpaired t-test (C). FIG. 9D includes images showing results for changes with 2% DSS given for 7 days followed by water. AuPhos was started (25 mg/kg q 3D) on DAY1. Representative images of H&E staining of whole tissue scan from 13-day study. ★★<0.01, ★★★<0.0001.
(§1) FIG. 12A RT-qPCR analysis of cytokines and chemokine genes in AuPhos vs. controls at 9 and 13 days after DSS initiation. FIG. 12B RT-qPCR analysis of cytokines and chemokine genes in AuPhos vs. controls at 9 and 13 days after DSS initiation. FIG. 12C Quantitative RT-PCR analysis of inflammasome markers in D13 DSS mice. Statistical significance was determined using multiple t-test with Holm-Sidak's multiple method. FIG. 12D Serum IL-6 in AuPhos treated (n=4) and control mice, with or without anti-CD3 antibody. ★<0.05; ★★<0.01.
FIGS. 17A-17F illustrate that AuPhos improves DSS-induced colitis. Results shown are for changes with 2% DSS given for 7 days followed by water. AuPhos was started (25 mg/kg q3D) on DAY1. FIG. 17A. Body Wt changes shown as means of each group (n=6) with SEM for 15 day trial as shown, with FIG. 17B. corresponding DAI. FIG. 17C. Histological score in DSS-colitis mice after Day−7, −11, −13, and −15 of DSS initiation. Statistical significance was determined using 2-way ANOVA with Sidak's multiple comparison test (A,B) or unpaired t-test (C) FIG. 17D. Representative images of H&E staining of whole tissue scan from 13-day study. E. Effect of AuPhos on intestinal permeability using FITC-dextran in DSS-colitis mice (n=5) in a separate D7, D9, D11, D13 and D15 experiment. F. RT-qPCR analysis of cytokines and chemokines genes in AuPhos vs. vehicle treated DSS colitis mice from 9-day, 13-day and 15-day studies. ß<0.05, ßß<0.01, ßßß<0.0001.
Given the potential that AuPhos provides a novel approach to IBD therapy, DSS colitis mice were given (2% DSS×7D) 25 mg/kg i.g. AuPhos every 3 days (from the start of DSS) until sacrifice.
(§2) Findings in FIG. 9A-9D indicate that AuPhos attenuates tissue inflammation and enhances mucosal healing in DSS colitis mice. To interrogate the effects of AuPhos on Th1 and Treg cytokine production as well as chemokine and inflammasome mediators, mRNA from mice at time points indicated (as in FIG. 9A-9D). […] To test the question of whether AuPhos affected leukocytes directly, control and AuPhos-treated (25 mg/kg i.g. dosed every 3d×2) were injected with anti-CD3 mAb (antiTCR mAb). It is known that CD3 mAb induces a cytokine storm in the periphery and intestine.
The efficacy of AuPhos in the treatment of colitis. Given the potential that AuPhos provides a novel approach to IBD therapy, DSS colitis mice (2% DSS×7D) were given intragastric (i.g.) AuPhos (25 mg/kg) every 3 days (from the start of DSS) until sacrifice.

serum IL-6 = assay: Anti-CD3 mAb-induced serum IL-6 in control and AuPhos-treated mice; type: in vivo, mouse; details: 25 mg/kg i.g. every 3d x2; anti-CD3 mAb injected
Procedure: as §1, §2

[1] = 2% DSS x7D, 25 mg/kg i.g. every 3 days, 9 and 13 day trials
[2] = 2% DSS x7D, 25 mg/kg i.g. every 3 days, 15 day trial
[3] = DSS colitis mice, 9 and 13 days after DSS initiation, RT-qPCR

[Cl][Au]1([c]2ccccc2Cc2ccccn2)[P](c2ccccc2)(c2ccccc2)c2ccccc2[P]1(c1ccccc1)c1ccccc1 [AuPhos]
hydrogen peroxide (H2O2) production (human colonoids; AuPhos 200 nM, normal and low-dose TNF-stimulated human colonoids, AmplexRed): increased in normal and TNF-treated cells; also recorded: Increases H2O2 production
AuPhos-induced ROS (H2O2) with PEG catalase (human colonoids; human colonoids): specifically digested with PEG catalase
DAI (DSS colitis mice; [1]): significantly reduces
weight (Wt) loss (DSS colitis mice; [1]): significantly reduces
colonic ulceration (tissue histology) (DSS colitis mice; 2% DSS x7D, 25 mg/kg i.g. every 3 days, 13-day study): resolution of colonic ulceration throughout the left colon
disease activity index (DAI) (DSS colitis mice; [2]): significantly reduces
weight (Wt) loss (DSS colitis mice; [2]): significantly reduces
tissue histologic indices (colitis score) (DSS colitis mice; 2% DSS x7D, 25 mg/kg i.g. every 3 days, at 13D): significant decreases
tissue histology indices (colitis score) (DSS colitis mice; 2% DSS x7D, 25 mg/kg i.g. every 3 days, at D11, 13 and 15): significant decreases
colonic ulceration (tissue histology) (DSS colitis mice; 15 day trial series): resolution of colonic ulceration throughout the left colon
markers of inflammasome signaling mRNA (DSS colitis mice; D13 DSS mice, RT-PCR): reduces
pro-inflammatory cytokine mRNA and chemokine-mediators of colitis (mucosal mRNA) (DSS colitis mice; DSS colitis mice, 9-day, 13-day and 15-day studies, RT-qPCR): reduces
chemokine-mediators of colitis mRNA (MCP-1, I-TAC and IP-10) (DSS colitis mice; [3]): reduces
pro-inflammatory cytokine mRNA (IFNγ, TNF, IL-6 and IL-10) (DSS colitis mice; [3]): reduces
acute colitis (DSS colitis mice; DSS mice): attenuates acute colitis
anti-CD3 induced increases in serum IL-6 (serum IL-6): did not affect
